Entries after “also recorded” stand apart in the source; their conditions may differ.
Assays:
[1] = tested on: arteriosclerotic plaques (aortic arch, a. carotis, abdominal aorta); assay: In vivo gamma camera scintigraphy of WHHL-rabbits; parameters: species or system WHHL-rabbit
Protocol: (§1) The order of the dissected tissues for each B1 and B2 from left to right: thoracic aorta, right denuded a. carotis and left untreated a. carotis.
(§2) 2 mCi (1 ml) of the analog to b) labelled […]was applied to a narcotized WHHL-rabbit (Rompun/Ketavet 1:2) via an ear vein. WHHL-rabbits reveal due a missing or defect LDL receptor high LDL levels in blood and therefore show spontaneous arteriosclerotic vascular changes. During the experimental time span of 5 h after application, static photographs with various exposure times and positions were taken with a gamma camera (Elcint SP4 HR). 5 h after application the rabbit was killed and both an autoradiography and a Sudan III dyeing of the aorta were performed.

[2] = tested on: plaque as well as non-plaque regions of the aorta; assay: Quantitative autoradiography and Sudan-III-dyeing of the removed aorta of WHHL-rabbits after i.v. application; parameters: species or system WHHL-rabbit; settings: in vivo
Protocol: 74 MBq (2 mCi) of the respective compound according to the invention was applied via an ear vein in a WHHL-rabbit. 5 h p.i. the rabbit was killed and both a quantitative autoradiography and a Sudan-III-dyeing of the removed aorta were performed. The so-determined accumulation of the respective compounds according to the invention in the different tissues is listed in Table 1.
as §2, with “performed. The arteriosclerotic plagues in the region of the aortic arch of the WHHL-rabbits could be depicted with 10 min p.i. in vivo. […] The enrichment factor between the normal and arteriosclerotic wall regions was between 6 and 9, depending on the plaque formation (Sudan III dyeing).” for “performed.”

[3] = tested on: denuded (arteriosclerotic) right a. carotis; assay: Scintigram and autoradiogram of a New Zealand rabbit with right a. carotis denuded by Fogarty-catheter; format: in vivo; settings: right a. carotis denuded four weeks earlier, 0.5 h after i.v. application of 74 MBq
Excerpt: as §1

With “Tc-99m-Complex of Asp-Gly-Gly-Cys-Gly-Cys-Phe-(D-Trp)-Leu-Asp-Ile-Ile-Trp [Example 3 c]” the “enrichment activity in vivo in left lateral scintigram” value ([1]; WHHL-rabbit versus New Zealand control rabbit, 0.5 h after i.v. application of 74 MBq, aortic arch, left a. carotis, abdominal aorta) was “observable enrichment activity in vivo; also recorded: enrichment activity is visible in vivo”.

“Tc-99m-Complex of N-(4-hydroxycarboxy-1-oxo-3-thia-but-1-yl)-Cys-(D-Trp)-Leu-Asp-Ile-Ile-Trp [Example 5 c]” was tested, and the “Enrichment factor Plaque / Non-plaque” value [2] was 9.

For “Tc-99m-Complex of N-(4-hydroxycarboxy-1-oxo-3-thia-but-1-yl)-Cys-His-Leu-Asp-Ile-Ile-Trp [Example 6 c]”, the “Enrichment factor Plaque / Non-plaque” value [2] was 5.

“Tc-99m-Complex of N-(4-hydroxycarboxy-1-oxo-3-thia-but-1-yl)-Cys-Phe-(D-Trp)-Leu-Asp-Ile-Ile-Trp [Example 4 c]” was tested, and the “Enrichment factor Plaque / Non-plaque” value [2] was 14.

For “^99mTc-Complex of Asp-Gly-Gly-Cys-Gly-Cys-D-Trp-Leu-Asp-Ile-Ile-Trp [Example 2 c]”, the “in vivo detection of the arteriosclerotic right a. carotis in anterior scintigram” value [3] was “could be detected in vivo”.

“^99mTc-Complex of Asp-Gly-Gly-Cys-Gly-Cys-His-Leu-Asp-Ile-Ile-Trp [Example 1 c]” was tested, and the “time p.i. at which arteriosclerotic plaques in the region of the aortic arch could be depicted in vivo” value ([1]; WHHL-rabbit, 2 mCi via ear vein, gamma camera) was 10 min.

Source: patent publication US6342201B1, “Complex compounds for diagnosis of vascular diseases” (Institut for Diagnostikforschung GmbH an der Freien …, priority 1994, dated 2002)
